Laboratory results published in patent publication US8569493B2 (Santen Pharmaceutical Co., Ltd., priority 2007, dated 2013).

Each molecule was assayed against T1, Recombinant human GR (Homo sapiens, UniProt P04150) (assay: GR competitor assay by fluorescence polarization (binding activity to glucocorticoid receptor)). Conditions: 20 μM test compound solution, 10 μL per well plus 5 μL 4×GS1 and 5 μL 4×GR; 2 to 4 hours at room temperature; ratio of 100% or more is indicated by 100%.
T1 construct: purchased Invitrogen P2816
T1 sequence (P04150 1-777): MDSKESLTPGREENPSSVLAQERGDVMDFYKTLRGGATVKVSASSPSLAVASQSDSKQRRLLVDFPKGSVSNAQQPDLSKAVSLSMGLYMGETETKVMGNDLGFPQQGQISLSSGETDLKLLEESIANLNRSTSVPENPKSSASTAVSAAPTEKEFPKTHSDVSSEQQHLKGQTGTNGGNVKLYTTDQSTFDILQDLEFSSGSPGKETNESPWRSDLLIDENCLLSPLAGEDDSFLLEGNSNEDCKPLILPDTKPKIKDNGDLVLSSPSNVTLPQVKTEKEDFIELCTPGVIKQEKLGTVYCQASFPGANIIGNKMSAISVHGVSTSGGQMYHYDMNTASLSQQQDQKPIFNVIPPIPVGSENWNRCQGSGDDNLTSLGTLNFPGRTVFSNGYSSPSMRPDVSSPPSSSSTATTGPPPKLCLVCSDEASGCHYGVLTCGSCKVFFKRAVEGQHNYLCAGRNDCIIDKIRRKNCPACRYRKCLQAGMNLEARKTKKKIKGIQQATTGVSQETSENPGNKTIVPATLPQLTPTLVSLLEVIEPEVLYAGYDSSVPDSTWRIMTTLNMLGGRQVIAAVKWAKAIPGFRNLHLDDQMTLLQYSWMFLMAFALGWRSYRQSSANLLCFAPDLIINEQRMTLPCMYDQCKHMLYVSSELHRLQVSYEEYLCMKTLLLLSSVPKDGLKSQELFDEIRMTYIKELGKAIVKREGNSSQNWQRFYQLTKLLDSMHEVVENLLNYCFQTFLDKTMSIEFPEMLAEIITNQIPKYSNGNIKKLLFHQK
Description: 1. Evaluation Test for Binding Activity to Glucocorticoid Receptor (hereinafter referred to as “GR”)
In order to evaluate a binding activity to GR, a receptor competitor assay was carried out by a fluorescence polarization method. In the assay, a GR competitor assay kit (manufactured by Invitrogen, cat No. P2816) was used, and a procedure was carried out according to the protocol attached to the kit. Hereinafter, the specific method will be described.
(Preparation of Reagents)
GR screening buffer: A buffer containing 10 mM potassium phosphate (pH 7.4), 20 mM sodium molybdate (Na2MoO4), 0.1 mM ethylene diamine tetraacetic acid (EDTA), 5 mM dithiothreitol (DTT), 0.1 mM stabilizing peptide and 2% dimethylsulfoxide was prepared.
4×GS1 solution: Fluormone™ GS1, which is a fluorescent glucocorticoid ligand, was diluted with GR screening buffer, whereby a 4 nM solution was prepared.
4×GR solution: Recombinant human GR was diluted with GR screening buffer, whereby a 16 nM solution was prepared.
(Preparation of Test Compound Solution)
After a test compound was dissolved in dimethylsulfoxide, it was diluted with GR screening buffer, whereby a 20 μM test compound solution was prepared.
(Test Method and Measurement Method)
1) The test compound solution was added in an amount of 10 μL into each well of a 384-well plate, and then, 4×GS1 solution and 4×GR solution were added in an amount of 5 μL into each well, respectively.
2) The plate was incubated in a dark place at room temperature for 2 to 4 hours.
3) By using a multimode plate reader, Analyst™ HT (manufactured by LJL Biosystems), fluorescence polarization of each well was measured. As the blank, a well containing GR screening buffer in place of the test compound and 4×GS1 solution was used.
4) The same procedure as that in the above 1) to 3) was carried out except that GR screening buffer was used in place of the test compound solution, and the obtained result was taken as the negative control.
5) The same procedure as that in the above 1) to 3) was carried out except that 2 mM dexamethasone was used in place of the test compound solution, and the obtained result was taken as the positive control.
(Calculation Equation of GR Binding Ratio)
A GR binding ratio (%) was calculated from the following equation. GR binding ratio(%)=100×[1−(fluorescence polarization of test compound solution−fluorescence polarization of positive control solution)/(fluorescence polarization of negative control solution−fluorescence polarization of positive control solution)] (Test Results and Discussion)
Work on COc1cc(OS(C)(=O)=O)ccc1-c1ccc2c(c1COc1cc(F)ccc1C)N(C)C(=O)C(C)(C)N2 [Compound 1-1, 8-(5-Fluoro-2-methylphenoxymethyl)-7-(2-methoxy-4-methylsulfonyloxyphenyl)-1,3,3-trimethyl-3,4-dihydro-1H-quinoxalin-2-one] yielded an inhibition at 10 µM of 91%. Work on COc1cc(OS(=O)(=O)c2ccccc2)ccc1-c1ccc2c(c1COc1cc(F)ccc1C)N(C)C(=O)C(C)(C)N2 [Compound 1-2] yielded an inhibition at 10 µM of 85%. Work on COc1cc(OS(=O)(=O)C(F)(F)F)ccc1-c1ccc2c(c1COc1cc(F)ccc1C)N(C)C(=O)C(C)(C)N2 [Compound 1-3] yielded an inhibition at 10 µM of 99%. CCCS(=O)(=O)Oc1ccc(-c2ccc3c(c2COc2cc(F)ccc2C)N(C)C(=O)C(C)(C)N3)c(OC)c1 [Compound 1-4] was tested, and the inhibition at 10 µM was 99%. COc1cc(OS(=O)(=O)c2ccco2)ccc1-c1ccc2c(c1COc1cc(F)ccc1C)N(C)C(=O)C(C)(C)N2 [Compound 1-5] gave an inhibition at 10 µM of 95%. For COc1cc(OS(C)(=O)=O)ccc1-c1ccc2c(c1COC(=O)c1ccc(C)s1)N(C)C(=O)C(C)(C)N2 [Compound 1-6], the inhibition at 10 µM was 100%. With COc1cc(OS(=O)(=O)c2ccccc2)ccc1-c1ccc2c(c1COC(=O)c1ccc(C)s1)N(C)C(=O)C(C)(C)N2 [Compound 1-7] the inhibition at 10 µM was 86%. COc1cc(OS(=O)(=O)c2ccccc2Cl)ccc1-c1ccc2c(c1COc1cc(F)ccc1C)N(C)C(=O)C(C)(C)N2 [Compound 1-8] gave an inhibition at 10 µM of 85%. With COc1cc(OS(=O)(=O)Cc2ccccc2)ccc1-c1ccc2c(c1COc1cc(F)ccc1C)N(C)C(=O)C(C)(C)N2 [Compound 1-9] the inhibition at 10 µM was 100%. In the case of COC(=O)CCS(=O)(=O)Oc1ccc(-c2ccc3c(c2COc2cc(F)ccc2C)N(C)C(=O)C(C)(C)N3)c(OC)c1 [Compound 1-10], the inhibition at 10 µM was 100%. For COc1cc(OS(=O)(=O)c2ccccc2C)ccc1-c1ccc2c(c1COc1cc(F)ccc1C)N(C)C(=O)C(C)(C)N2 [Compound 1-11], the inhibition at 10 µM was 83%. CCCCS(=O)(=O)Oc1ccc(-c2ccc3c(c2COc2cc(F)ccc2C)N(C)C(=O)C(C)(C)N3)c(OC)c1 [Compound 1-12] was tested, and the inhibition at 10 µM was 100%. For CCS(=O)(=O)Oc1ccc(-c2ccc3c(c2COc2cc(F)ccc2C)N(C)C(=O)C(C)(C)N3)c(OC)c1 [Compound 1-13], the inhibition at 10 µM was 100%. With COc1cc(OS(=O)(=O)C(C)C)ccc1-c1ccc2c(c1COc1cc(F)ccc1C)N(C)C(=O)C(C)(C)N2 [Compound 1-14] the inhibition at 10 µM was 100%. With COc1cccc(S(=O)(=O)Oc2ccc(-c3ccc4c(c3COc3cc(F)ccc3C)N(C)C(=O)C(C)(C)N4)c(OC)c2)c1 [Compound 1-15] the inhibition at 10 µM was 82%. With COc1cc(OS(=O)(=O)c2cccc(Cl)c2)ccc1-c1ccc2c(c1COc1cc(F)ccc1C)N(C)C(=O)C(C)(C)N2 [Compound 1-16] the inhibition at 10 µM was 68%. For COc1cc(OS(=O)(=O)c2ccc(Cl)cc2)ccc1-c1ccc2c(c1COc1cc(F)ccc1C)N(C)C(=O)C(C)(C)N2 [Compound 1-17], the inhibition at 10 µM was 65%. In the case of COc1cc(OS(=O)(=O)Cc2cccc(Cl)c2)ccc1-c1ccc2c(c1COc1cc(F)ccc1C)N(C)C(=O)C(C)(C)N2 [Compound 1-18], the inhibition at 10 µM was 88%. Molecule COc1cc(OS(=O)(=O)Cc2ccc(C)cc2)ccc1-c1ccc2c(c1COc1cc(F)ccc1C)N(C)C(=O)C(C)(C)N2 [Compound 1-19] has an inhibition at 10 µM of 91%. Work on COc1cc(OS(=O)(=O)Cc2ccc(Cl)cc2)ccc1-c1ccc2c(c1COc1cc(F)ccc1C)N(C)C(=O)C(C)(C)N2 [Compound 1-20] yielded an inhibition at 10 µM of 87%. Work on COc1cc(OS(=O)(=O)CC(C)C)ccc1-c1ccc2c(c1COc1cc(F)ccc1C)N(C)C(=O)C(C)(C)N2 [Compound 1-21] yielded an inhibition at 10 µM of 92%. In the case of COc1cc(OS(=O)(=O)CCC(F)(F)F)ccc1-c1ccc2c(c1COc1cc(F)ccc1C)N(C)C(=O)C(C)(C)N2 [Compound 1-22], the inhibition at 10 µM was 91%. Work on COc1cc(OS(=O)(=O)C2CC2)ccc1-c1ccc2c(c1COc1cc(F)ccc1C)N(C)C(=O)C(C)(C)N2 [Compound 1-23] yielded an inhibition at 10 µM of 94%. Molecule COc1cc(NS(C)(=O)=O)ccc1-c1ccc2c(c1COc1cc(F)ccc1C)N(C)C(=O)C(C)(C)N2 [Compound 1-25] has an inhibition at 10 µM of 92%. Molecule COc1cc(OS(=O)(=O)c2ccccc2F)ccc1-c1ccc2c(c1COc1cc(F)ccc1C)N(C)C(=O)C(C)(C)N2 [Compound 1-26] has an inhibition at 10 µM of 95%. With COc1cc(OS(=O)(=O)Cc2ccccc2Cl)ccc1-c1ccc2c(c1COc1cc(F)ccc1C)N(C)C(=O)C(C)(C)N2 [Compound 1-27] the inhibition at 10 µM was 99%. In the case of COc1cc(OS(=O)(=O)Cc2ccccc2C)ccc1-c1ccc2c(c1COc1cc(F)ccc1C)N(C)C(=O)C(C)(C)N2 [Compound 1-28], the inhibition at 10 µM was 91%. Work on COc1cc(OS(=O)(=O)C2CCCC2)ccc1-c1ccc2c(c1COc1cc(F)ccc1C)N(C)C(=O)C(C)(C)N2 [Compound 1-29] yielded an inhibition at 10 µM of 95%. COc1cc(OS(=O)(=O)C2CCCCC2)ccc1-c1ccc2c(c1COc1cc(F)ccc1C)N(C)C(=O)C(C)(C)N2 [Compound 1-30] was tested, and the inhibition at 10 µM was 92%. In the case of COc1cc(OS(=O)(=O)Cc2cccc(C)c2)ccc1-c1ccc2c(c1COc1cc(F)ccc1C)N(C)C(=O)C(C)(C)N2 [Compound 1-31], the inhibition at 10 µM was 90%. With COc1cc(OS(=O)(=O)C2CC2)ccc1-c1ccc2c(c1COC(=O)c1ccc(C)s1)N(C)C(=O)C(C)(C)N2 [Compound 1-32] the inhibition at 10 µM was 96%. Molecule COc1cc(OS(=O)(=O)CCC(F)(F)F)ccc1-c1ccc2c(c1COC(=O)c1ccc(C)s1)N(C)C(=O)C(C)(C)N2 [Compound 1-33] has an inhibition at 10 µM of 95%. With COc1cc(OS(=O)(=O)CC(C)C)ccc1-c1ccc2c(c1COC(=O)c1ccc(C)s1)N(C)C(=O)C(C)(C)N2 [Compound 1-34] the inhibition at 10 µM was 100%. With CCCS(=O)(=O)Oc1ccc(-c2ccc3c(c2COC(=O)c2ccc(C)s2)N(C)C(=O)C(C)(C)N3)c(OC)c1 [Compound 1-35] the inhibition at 10 µM was 95%. COc1cc(OS(=O)(=O)C(C)C)ccc1-c1ccc2c(c1COC(=O)c1ccc(C)s1)N(C)C(=O)C(C)(C)N2 [Compound 1-36] gave an inhibition at 10 µM of 99%. COc1cc(OS(=O)(=O)C2CCCC2)ccc1-c1ccc2c(c1COC(=O)c1ccc(C)s1)N(C)C(=O)C(C)(C)N2 [Compound 1-37] was tested, and the inhibition at 10 µM was 94%. With COc1ccc([N+](=O)[O-])cc1OCc1c(-c2ccc(OS(C)(=O)=O)cc2OC)ccc2c1N(C)C(=O)C(C)(C)N2 [Compound 1-38] the inhibition at 10 µM was 100%. In the case of COc1ccc([N+](=O)[O-])cc1OCc1c(-c2ccc(OS(=O)(=O)CCC(F)(F)F)cc2OC)ccc2c1N(C)C(=O)C(C)(C)N2 [Compound 1-39], the inhibition at 10 µM was 100%. For COc1ccc([N+](=O)[O-])cc1OCc1c(-c2ccc(OS(=O)(=O)CC(C)C)cc2OC)ccc2c1N(C)C(=O)C(C)(C)N2 [Compound 1-40], the inhibition at 10 µM was 100%. With COc1ccc([N+](=O)[O-])cc1OCc1c(-c2ccc(OS(=O)(=O)C3CCCC3)cc2OC)ccc2c1N(C)C(=O)C(C)(C)N2 [Compound 1-41] the inhibition at 10 µM was 100%. With COc1ccc([N+](=O)[O-])cc1OCc1c(-c2ccc(OS(=O)(=O)C(C)C)cc2OC)ccc2c1N(C)C(=O)C(C)(C)N2 [Compound 1-42] the inhibition at 10 µM was 100%. COc1ccc([N+](=O)[O-])cc1OCc1c(-c2ccc(OS(=O)(=O)C3CC3)cc2OC)ccc2c1N(C)C(=O)C(C)(C)N2 [Compound 1-43] showed an inhibition at 10 µM of 100%.
